EC50 and CC50 data for 31 molecules are collected here from patent publication US12522582B2 (Gilead Sciences, Inc., priority 2022, dated 2026).

One data set has as its system HSV-2 virus (MS strain). The experiment in a line: HSV-2 Cellomics Assay (immunofluorescence of HSV protein gD in infected ARPE-19 cells). The following applies: Human alphaherpesvirus 2, ARPE-19, 16 h.
Data set [1] in a line: MT-4 CC50 Assay (CellTiter Glo). It counts as cell-based. Conditions: human, MT-4 cells, luminescence, read-out: CC50-MT4. As for the experimental part:
Compounds were tested in 384-well plates: 18 compounds in duplex. Compounds were diluted in 7 points, 3-fold with DMSO by Bravo. Assay plate, which contains 20 uL medium with compounds, was seeded 2000 MT-4 cells in 20 uL/well by Multi-drop to start the assay. The plate was incubated at 37° C. for 5 days. On 6th day, the CellTiter Glo 40 uL was added in each well. Luminescence was read by Victor II.
For orientation: In ATP-based viability assays light output follows the ATP content of the culture.

Where [2] appears, read: read-out: EC50-HSV2-10% Human Serum.

Read-outs that look alike come from different tables or passages of the source.

Experimental for HSV-2 virus (MS strain): Compounds were tested for their ability to inhibit HSV-2 replication by monitoring the expression of the HSV protein gD using a high-throughput immunofluorescence-based assay. 10-dose, 3-fold serial dilutions of compounds were prepared at starting concentrations of 0.2 or 2 mM in 100% DMSO. […] The final starting concentration in the assay was either 1 or 10 μM. DMSO (no compound) and pritelivir were included on each microplate as negative and positive controls, respectively.
Prior to confluence, cells were transferred to a centrifuge tube and spun for 5 minutes at 1000 rpm. Cells were resuspended in assay medium (DMEM/F-12 Glutamax, 2% FBS, 1% Penicillin-Streptomycin) and counted. Cell density was adjusted to 150,000 cells/ml and infected with HSV-2 virus (MS strain, ATCC cat #VR-540) at a MOI of 0.06 in a 50 ml conical tube for 1 hour under constant rocking. Cells were then spun for 5 minutes at 1000 rpm and the media replaced with assay medium containing either 2% FBS or 10% human serum (EMD Millipore cat #S1-100 ML). 50 μl of the infection suspension were added into microplate wells that were pre-spotted with compounds (7,500 cells per well). Plates were incubated for 16 hours at 37° C.
After a 30-minute incubation at room temperature, plates were washed 4 times with 100 μl/well of PBS using a Biotek plate washer. […] Plates were washed 4 times again and 50 μl of DPBS were added to all wells prior to sealing the plates with a black adhesive seal. Fluorescence was measured on a Cellomics plate reader.
Data analysis was carried out using the Thermo Scientific HCS Studio software. Briefly, cells were identified using the DAPI nuclear stain and thresholds were set to filter cells out based on shape and size. A second threshold based on green fluorescence intensity (detection of HSV-2 gD) was set to identify HSV-2 infected cells. Data was reported as the average fluorescence intensity of HSV-2 infected cells.

Usually EC50 stands for the concentration at which the effect is half-maximal. A word on the CC50: it is the concentration at which the toxic effect on the cells reaches its halfway point. For `C[S@](=N)(=O)c1ccc2c(c1)N(C(=O)[C@@H]1Cc3ccc(-c4ccccn4)cc3C1)CC2` (single isomer, unassigned) [Example 33], the 50% effective concentration (EC50) in the data set on HSV-2 virus (MS strain) (setting [2]) was found to be 1370 nM; in the data set with HSV-2 virus (MS strain) (read-out: EC50-HSV2-FBS), 165 nM. Moreover, the half-maximal cytotoxic concentration (CC50) at 5 days in data set [1] is ≥ 50000 nM.
On to `NS(=O)(=O)c1cc2c(cc1F)CCN2C(=O)C1Cc2ccc(-c3ccccn3)cc2C1` (stereo not drawn) [Example 8], for which the half-maximal effective concentration (EC50) with HSV-2 virus (MS strain) (setting [2]) turned out to be 22700 nM; in the data set on HSV-2 virus (MS strain) (read-out: EC50-HSV2-FBS), 9.9 nM. The cytotoxic concentration (CC50) at 5 days in data set [1] came out at 42300 nM.
Take `NS(=O)(=O)c1ccc2c(c1)N(C(=O)C1Cc3ccc(-c4cscn4)cc3C1)CC2` (stereo not drawn) [Example 19]: the 50% effective concentration (EC50) is ≥ 25000 nM in the data set with HSV-2 virus (MS strain) (setting [2]) and 23 nM in the data set with HSV-2 virus (MS strain) (read-out: EC50-HSV2-FBS). In addition, in data set [1], the 50% cytotoxic concentration (CC50) at 5 days was determined as 37700 nM.
Regarding `NS(=O)(=O)c1ccc2c(c1)N(C(=O)C1Cc3ccc(-c4cocn4)cc3C1)CC2` (stereo not drawn) [Example 23], the EC50 in the data set on HSV-2 virus (MS strain) (setting [2]) came to 11000 nM; in the data set on HSV-2 virus (MS strain) (read-out: EC50-HSV2-FBS), 19 nM. Further, the CC50 at 5 days in data set [1] is ≥ 50000 nM.
For `NS(=O)(=O)c1ccc2c(c1)N(C(=O)C1Cc3cc(-c4ccccn4)ccc3O1)CC2` (stereo not drawn) [Example 36] the same measures were ≥ 25000 nM, 71 nM and ≥ 50000 nM.
For `NS(=O)(=O)c1cc2c(cc1F)CCN2C(=O)C1Cc2cc(-c3ccccn3)ccc2O1` (stereo not drawn) [Example 37] the same measures were 19300 nM, 10 nM and ≥ 50000 nM.
The matching figures for `C[C@@H]1Cc2cc(Br)c(S(N)(=O)=O)cc2N1C(=O)[C@@H]1Cc2ccc(-c3ccccn3)cc2C1` [Example 38, (R)-5-bromo-2-methyl-1-((R)-5-(pyridin-2-yl)-2,3-dihydro-1H-indene-2-carbonyl)indoline-6-sulfonamide]: 543 nM, 19 nM and ≥ 10000 nM.
Regarding `C[S@](=N)(=O)c1cc2c(cc1F)CCN2C(=O)[C@@H]1Cc2ccc(-c3ccccn3)cc2C1` [Example 41, (S)-(5-fluoro-1-((R)-5-(pyridin-2-yl)-2,3-dihydro-1H-indene-2-carbonyl)indolin-6-yl)(imino)(methyl)-16-sulfanone], the EC50 in the data set on HSV-2 virus (MS strain) (setting [2]) came out at 140 nM; in the data set on HSV-2 virus (MS strain) (read-out: EC50-HSV2-FBS), 37 nM. Moreover, the CC50 at 5 days in data set [1] was ≥ 10000 nM.
For `C[C@@H]1[C@@H](C)c2cc(F)c(S(N)(=O)=O)cc2N1C(=O)[C@@H]1Cc2ccc(-c3ccccn3)cc2C1` [Example 46, (2R,3S)-5-fluoro-2,3-dimethyl-1-((R)-5-(pyridin-2-yl)-2,3-dihydro-1H-indene-2-carbonyl)indoline-6-sulfonamide] the same measures were 143 nM, 16 nM and ≥ 10000 nM.
Regarding `C[C@@H]1c2cc(F)c(S(N)(=O)=O)cc2N(C(=O)[C@@H]2Cc3ccc(-c4ccccn4)cc3C2)[C@@H]1C` [Example 48, (2R,3R)-5-fluoro-2,3-dimethyl-1-((R)-5-(pyridin-2-yl)-2,3-dihydro-1H-indene-2-carbonyl)indoline-6-sulfonamide], the values for the EC50 in the data set on HSV-2 virus (MS strain) (setting [2]) and with HSV-2 virus (MS strain) (read-out: EC50-HSV2-FBS) were 104 nM and 16 nM, respectively. In addition, the cytotoxic concentration (CC50) at 5 days in data set [1] was ≥ 10000 nM.
The matching figures for `C[C@@H]1Cc2cc(F)c(S(N)(=O)=O)cc2N1C(=O)[C@@H]1Cc2ccc(-c3cc(F)ccc3Cl)cc2C1` [Example 50, (R)-1-((R)-5-(2-chloro-5-fluorophenyl)-2,3-dihydro-1H-indene-2-carbonyl)-5-fluoro-2-methylindoline-6-sulfonamide]: 214 nM, 61 nM and ≥ 10000 nM.
For the molecule `C[S@](=N)(=O)c1cc2c(cc1F)CCN2C(=O)[C@@H]1Cc2ccc(-c3cc(F)ccc3F)cc2C1` [Example 53], the EC50 with HSV-2 virus (MS strain) (setting [2]) was 415 nM; with HSV-2 virus (MS strain) (read-out: EC50-HSV2-FBS), 48 nM. Besides, in data set [1], the half-maximal cytotoxic concentration (CC50) at 5 days is ≥ 10000 nM.
For `C[C@@H]1Cc2ccc(S(N)(=O)=O)cc2N1C(=O)C1Cc2cc(-c3ccccn3)ccc2O1` (stereo partly drawn) [Example 57] the same measures were 381 nM, 35 nM and ≥ 10000 nM.
Turning to `C[C@@H]1c2ccc(-c3ccccn3)cc2C[C@H]1C(=O)N1CCc2ccc(S(N)(=O)=O)cc21` [Example 93, 1-((1S,2R)-1-methyl-5-(pyridin-2-yl)-2,3-dihydro-1H-indene-2-carbonyl)indoline-6-sulfonamide], the concentration giving a half-maximal response (EC50) with HSV-2 virus (MS strain) (setting [2]) was ≥ 25000 nM; in the data set on HSV-2 virus (MS strain) (read-out: EC50-HSV2-FBS) it was 1850 nM.
For `CC1c2cc(-c3ccccn3)ccc2CC1C(=O)N1CCc2ccc(S(N)(=O)=O)cc21` (stereo not drawn) [Example 95, 1-(1-methyl-6-(pyridin-2-yl)-2,3-dihydro-1H-indene-2-carbonyl) indoline-6-sulfonamide] the same measures were ≥ 25000 nM and 2850 nM.
For `C[C@@H]1c2ccc(-c3ccccn3)cc2C[C@H]1C(=O)N1CCc2cc(F)c(S(N)(=O)=O)cc21` [Example 98, 5-fluoro-1-((1S,2R)-1-methyl-5-(pyridin-2-yl)-2,3-dihydro-1H-indene-2-carbonyl)indoline-6-sulfonamide] the same measures were 6650 nM and 1360 nM.
For `CC1CN(C(=O)[C@@H]2Cc3cc(-c4ccccn4)ccc3[C@H]2C)c2cc(S(N)(=O)=O)ccc21` (stereo partly drawn) [Example 101, 3-methyl-1-((1S,2R)-1-methyl-5-(pyridin-2-yl)-2,3-dihydro-1H-indene-2-carbonyl)indoline-6-sulfonamide], the EC50 with HSV-2 virus (MS strain) (read-out: EC50-HSV2-FBS) came to 6760 nM.
As for `CC1CN(C(=O)[C@H]2Cc3cc(-c4ccccn4)ccc3[C@@H]2C)c2cc(S(N)(=O)=O)ccc21` (stereo partly drawn) [Example 102, 3-methyl-1-((1R,2S)-1-methyl-5-(pyridin-2-yl)-2,3-dihydro-1H-indene-2-carbonyl) indoline-6-sulfonamide], the EC50 in the data set with HSV-2 virus (MS strain) (setting [2]) was found to be 905 nM; with HSV-2 virus (MS strain) (read-out: EC50-HSV2-FBS), 160 nM.
Consider `C[C@H]1CN(C(=O)[C@@H]2Cc3ccc(-c4ccccn4)cc3C2)c2cc(S(N)(=O)=O)ccc21` [Example 107, (R)-3-methyl-1-((R)-5-(pyridin-2-yl)-2,3-dihydro-1H-indene-2-carbonyl)indoline-6-sulfonamide], for which the results for the half-maximal effective concentration (EC50) with HSV-2 virus (MS strain) (setting [2]) and with HSV-2 virus (MS strain) (read-out: EC50-HSV2-FBS) were ≥ 25000 nM and 95 nM, respectively.
As for `C[C@@H]1CN(C(=O)[C@@H]2Cc3ccc(-c4ccccn4)cc3C2)c2cc(S(N)(=O)=O)ccc21` [Example 108, (S)-3-methyl-1-((R)-5-(pyridin-2-yl)-2,3-dihydro-1H-indene-2-carbonyl)indoline-6-sulfonamide], the EC50 in the data set on HSV-2 virus (MS strain) (read-out: EC50-HSV2-FBS) came out at 285 nM.
As to `CC1(C)CN(C(=O)C2Cc3ccc(-c4ccccn4)cc3C2)c2cc(S(N)(=O)=O)ccc21` (stereo not drawn) [Example 109], the EC50 in the data set on HSV-2 virus (MS strain) (read-out: EC50-HSV2-FBS) is 390 nM.
Regarding `NS(=O)(=O)c1cc2c(cc1Br)CCN2C(=O)C1Cc2ccc(-c3ccccn3)cc2C1` (stereo not drawn) [Example 110, 5-Bromo-1-(5-(pyridin-2-yl)-2,3-dihydro-1H-indene-2-carbonyl)indoline-6-sulfonamide], the figures for the EC50 in the data set with HSV-2 virus (MS strain) (setting [2]) and with HSV-2 virus (MS strain) (read-out: EC50-HSV2-FBS) were ≥ 25000 nM and 26 nM, respectively.
The matching figures for `COc1cc2c(cc1S(N)(=O)=O)N(C(=O)C1Cc3ccc(-c4ccccn4)cc3C1)CC2` (stereo not drawn) [Example 111, 5-Methoxy-1-[5-(2-pyridyl)indane-2-carbonyl]indoline-6-sulfonamide]: ≥ 25000 nM and 1740 nM.
On to `CC[C@H]1Cc2cc(F)c(S(N)(=O)=O)cc2N1C(=O)[C@@H]1Cc2ccc(-c3ccccn3)cc2C1` [Example 114], for which the values for the 50% effective concentration (EC50) in the data set on HSV-2 virus (MS strain) (setting [2]) and with HSV-2 virus (MS strain) (read-out: EC50-HSV2-FBS) were 926 nM and 128 nM, respectively.
The matching figures for `NS(=O)(=O)c1ccc2c(c1)N(C(=O)C1Cc3ccc(-c4ccccn4)cc3O1)CC2` (stereo not drawn) [Example 115, 1-(6-(pyridin-2-yl)-2,3-dihydrobenzofuran-2-carbonyl)indoline-6-sulfonamide]: 1640 nM and 99 nM.
On to `NS(=O)(=O)c1ccc2c(c1)N(C(=O)[C@@H]1Cc3ccc(-c4ncccn4)cc3C1)CC2` [Example 133, (R)-1-(5-(pyrimidin-2-yl)-2,3-dihydro-1H-indene-2-carbonyl)indoline-6-sulfonamide], for which the 50% effective concentration (EC50) with HSV-2 virus (MS strain) (setting [2]) worked out at 6130 nM; in the data set with HSV-2 virus (MS strain) (read-out: EC50-HSV2-FBS), 102 nM.
With `NS(=O)(=O)c1ccc2c(c1)N(C(=O)[C@@H]1Cc3ccc(-c4cccc5ccccc45)cc3C1)CC2` [Example 134, (R)-1-(5-(naphthalen-1-yl)-2,3-dihydro-1H-indene-2-carbonyl)indoline-6-sulfonamide], the EC50 was found to be 3100 nM with HSV-2 virus (MS strain) (setting [2]) and 231 nM with HSV-2 virus (MS strain) (read-out: EC50-HSV2-FBS).
For `C[C@@H]1CN(C(=O)[C@H]2Cc3cc(-c4ccccn4)c(F)cc3O2)c2cc(S(N)(=O)=O)c(F)cc21` [Example 136, (S)-5-fluoro-1-((R)-6-fluoro-5-(pyridin-2-yl)-2,3-dihydrobenzofuran-2-carbonyl)-3-methylindoline-6-sulfonamide] the same measures were 2220 nM and 89.6 nM.
Consider `C[C@H]1CN(C(=O)[C@H]2Cc3cc(-c4ccccn4)c(F)cc3O2)c2cc(S(N)(=O)=O)c(F)cc21` [Example 137, (R)-5-fluoro-1-((R)-6-fluoro-5-(pyridin-2-yl)-2,3-dihydrobenzofuran-2-carbonyl)-3-methylindoline-6-sulfonamide], for which the figures for the EC50 with HSV-2 virus (MS strain) (setting [2]) and in the data set with HSV-2 virus (MS strain) (read-out: EC50-HSV2-FBS) were 538 nM and 129 nM, respectively.
For `C[C@H]1c2ccc(-c3ccccn3)cc2C[C@@H]1C(=O)N1C[C@H](C(F)(F)F)c2cc(F)c(S(N)(=O)=O)cc21` [Example 139, (R)-5-fluoro-1-((1R,2S)-1-methyl-5-(pyridin-2-yl)-2,3-dihydro-1H-indene-2-carbonyl)-3-(trifluoromethyl)indoline-6-sulfonamide], the concentration for a half-maximal effect (EC50) was found to be 1710 nM in the data set with HSV-2 virus (MS strain) (setting [2]) and 74.2 nM with HSV-2 virus (MS strain) (read-out: EC50-HSV2-FBS).
With `C[C@@H]1Cc2cc(F)c(S(N)(=O)=O)cc2N1C(=O)[C@H]1Cc2ccc(-c3ccccn3)cc2C1` [Example 141, (R)-5-fluoro-2-methyl-1-((S)-5-(pyridin-2-yl)-2,3-dihydro-1H-indene-2-carbonyl)indoline-6-sulfonamide], the results for the EC50 in the data set with HSV-2 virus (MS strain) (setting [2]) and with HSV-2 virus (MS strain) (read-out: EC50-HSV2-FBS) were 2630 nM and 293 nM, respectively.
